Reference: patent US10329303B2, “Heterocyclic inhibitors of monocarboxylate transporter” (THE SCRIPPS RESEARCH INSTITUTE, priority 2015, dated 2019)

What follows are molecules tested on Raji (Burkitt's) lymphoma cells (assay: MTT assay for 4-day viability of Raji (Burkitt's) lymphoma cells). Conditions: Homo sapiens, 96 h, Raji cells (highly express MCT1), read-out: approximate potency (EC50).
Type: cell-based
Description: Specific Examples 1-52 of compounds of the invention, with estimated EC50 values determined using an MTT assay for 4-day viability of Raji (Burkitt's) lymphoma cells, a cell line known to highly express MCT1 and to be sensitive to small molecule MCT inhibitors,^4 are shown in Table 2. Assay protocols follow those described in the literature.^4 Other assays that are not described here but that are standard in the field, such as an assay for competitive inhibition of transport of radiolabeled lactic acid, an MCT substrate, may also be useful in establishing mechanism of action of these compounds.

Structure (SMILES)	EC50
CC(C)Cc1nn(C)c(=O)c2c(-c3cccc(C(C)O)n3)n(Cc3cccc4ccccc34)cc12 (centres unmarked) [Example 34, 7-(6-(1-hydroxyethyl)pyridin-2-yl)-4-isobutyl-2-methyl-6-(naphthalen-1-ylmethyl)-2,6-dihydro-1H-pyrrolo[3,4-d]pyridazin-1-one]	1 µM
CC(C)Cc1nn(C)c(=O)c2c(-c3cccc(CO)c3)n(Cc3cc(Cl)nc4ccccc34)cc12 [Example 46, 6-((2-chloroquinolin-4-yl)methyl)-7-(3-(hydroxymethyl)phenyl)-4-isobutyl-2-methyl-2,6-dihydro-1H-pyrrolo[3,4-d]pyridazin-1-one]	1 to 10 µM
Cc1n[nH]c(C)c1Cc1sc2c(c1-c1cc(F)c(F)c(CO)c1)c(=O)n(C1CC1)c(=O)n2CC(C)C [Example 18, 3-cyclopropyl-5-(3,4-difluoro-5-(hydroxymethyl)phenyl)-6-((3,5-dimethyl-1H-pyrazol-4-yl)methyl)-1-isobutylthieno[2,3-d]pyrimidine-2,4(1H,3H)-dione]	0.9 µM
CC(C)Cc1nn(C)c(=O)c2c(-c3cc(CO)ccc3F)n(Cc3ccc(-c4ccccc4)cc3)cc12 [Example 41, 6-([1,1′-biphenyl]-4-ylmethyl)-7-(2-fluoro-5-(hydroxymethyl)phenyl)-4-isobutyl-2-methyl-2,6-dihydro-1H-pyrrolo[3,4-d]pyridazin-1-one]	0.8 µM
CC(C)Cc1nn(C)c(=O)c2c(-c3cccc(CO)c3F)n(Cc3cccc4ccccc34)cc12 [Example 29, 7-(2-fluoro-3-(hydroxymethyl)phenyl)-4-isobutyl-2-methyl-6-(naphthalen-1-ylmethyl)-2,6-dihydro-1H-pyrrolo[3,4-d]pyridazin-1-one]	0.08 µM
Cc1n[nH]c(C)c1Cc1sc2c(c1-c1cnc(F)c(CO)c1)c(=O)n(C)c(=O)n2CC(C)C [Example 4, 6-((3,5-dimethyl-1H-pyrazol-4-yl)methyl)-5-(6-fluoro-5-(hydroxymethyl)pyridin-3-yl)-1-isobutyl-3-methylthieno[2,3-d]pyrimidine-2,4(1H,3H)-dione]	0.2 µM
CC(C)Cc1nn(C)c(=O)c2c(-c3ccc(C(O)C(F)(F)F)s3)n(Cc3cccc4ccccc34)cc12 (centres unmarked) [Example 39, 4-isobutyl-2-methyl-6-(naphthalen-1-ylmethyl)-7-(5-(2,2,2-trifluoro-1-hydroxyethyl)thiophen-2-yl)-2,6-dihydro-1H-pyrrolo[3,4-d]pyridazin-1-one]	0.09 µM

Molecules with a lower EC50, results first:

EC50	Structure (SMILES)
≤ 0.02 µM	Cc1n[nH]c(C)c1Cc1sc2c(c1-c1cc(CO)c(F)cc1F)c(=O)n(C)c(=O)n2CC(C)C [Example 6, 5-(2,4-difluoro-5-(hydroxymethyl)phenyl)-6-((3,5-dimethyl-1H-pyrazol-4-yl)methyl)-1-isobutyl-3-methylthieno[2,3-d]pyrimidine-2,4(1H,3H)-dione]
0.025 µM	Cc1n[nH]c(C)c1Cc1sc2c(c1-c1cc(F)cc(CO)c1)c(=O)n(C)c(=O)n2CC(C)C [Example 11, 6-((3,5-dimethyl-1H-pyrazol-4-yl)methyl)-5-(3-fluoro-5-(hydroxymethyl)phenyl)-1-isobutyl-3-methylthieno[2,3-d]pyrimidine-2,4(1H,3H)-dione]
≤ 0.02 µM	Cc1n[nH]c(C)c1Cc1sc2c(c1-c1cc(CO)ccc1F)c(=O)n(C1CC1)c(=O)n2CC(C)C [Example 22, 3-cyclopropyl-6-((3,5-dimethyl-1H-pyrazol-4-yl)methyl)-5-(2-fluoro-5-(hydroxymethyl)phenyl)-1-isobutylthieno[2,3-d]pyrimidine-2,4(1H,3H)-dione]
< 0.02 µM	Cc1n[nH]c(C)c1Cc1sc2c(c1-c1cccc(CO)c1)c(=O)n(C)c(=O)n2CC(C)C [Example 15, 6-((3,5-dimethyl-1H-pyrazol-4-yl)methyl)-5-(3-(hydroxymethyl)phenyl)-1-isobutyl-3-methylthieno[2,3-d]pyrimidine-2,4(1H,3H)-dione]
